{"source": "patent US9416145B2", "about": "“Compositions and methods for inhibiting activity of hypoxia-inducible transcription factor complex and its use for treatment of tumors” (priority 2012, dated 2016)", "key": {"[1]": {"target": "T1, GST-tagged CH1 domain of human p300 (aa residues 323-423) (Homo sapiens, UniProt Q09472)", "T1 construct": "CH1 domain of human p300 (aa residues 323-423)", "T1 sequence (Q09472 323-423)": "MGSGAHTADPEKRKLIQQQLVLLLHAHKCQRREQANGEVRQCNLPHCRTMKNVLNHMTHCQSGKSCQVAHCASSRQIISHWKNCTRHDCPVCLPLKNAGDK", "experiment": "SPR direct binding to immobilized GST-CH1-p300", "design": "direct binding to GST-CH1-p300 (in words): dose or concentration left out as unconfirmed", "text": "Prior to undertaking more rigorous biophysical and biological characterization of dimeric ETPs LS69 and LS72, it was important to first characterize its thermodynamic binding properties toward the target, p300 CH1 domain. We conducted SPR experiments in the presence of DTT to mimic the reducing environment that would be found in the intracellular milieu. From the SPR sensorgrams it is clear that both LS69 and LS72 bind directly to the GST-tagged CH1 domain of human p300 (aa residues 323-423) with high affinity."}, "[2]": {"experiment": "MTT cytotoxicity assay in MCF7 cells", "type": "cell-based", "conditions": "human, MCF7, 24 h treatment", "experimental": "FIG. 10 MTT cytotoxicity assay for LS72 in MCF7 cells. Cells were maintained in RPMI-1640 media supplemented with 10% FBS. Cells were treated with different concentrations of LS72 for 24 hours and the amount of purple formazan formed was determined via spectrophotometry.\nBased on this EC50 value of LS72 in MCF7 cells we chose to measure its effect on HIF inducible transcription at a maximum concentration of 400 nM in MCF7 cells. This is important in order to minimize the nonspecific effects on mRNA levels due to reduction in cell viability."}, "[3]": {"test_system": "CXCR4 mRNA in A549 cells", "experiment": "qRT-PCR of CXCR4 mRNA in A549 cells", "type": "cell-based", "experimental": "FIGS. 14 (A) qRT-PCR data for LOX and (B) CXCR4 genes in A549 cells treated with LS72. Hypoxia was induced by hypoxia bag. Cells were maintained in F-12K medium with 2% serum. After reaching 65% confluency the cells were grown in serum free media and treated with LS72 (400 nM). Hypoxia was induced with DFO (300 μM) for 48 h. Error bars are s.e.m. of experiments performed in triplicate. **P<0.01, t test.\nFIG. 18 qRT-PCR data for A549 cells where hypoxia was induced in 85% confluent cells. […] Error bars are ±sem for the experiments performed in triplicate. […] ** P<0.01, # P<0.1, t test.\nAfter tests with various serum levels in the media and hypoxia induction methods, the conditions that worked remarkably and consistently well for the induction of HIF1α dependent genes were to keep A549 cells in 2% serum followed by treating cells with compound or control in the media with 0.2% serum for 48 h (FIG. 13). Under these conditions while hypoxia bag was the best option for induction of the LOX gene, the best hypoxic response leading to upregulation of many other HIF1α inducible genes was treatment with 300 μM DFO.\nThe hypoxia induction was done at a confluency of 85% cells in serum free F-12K medium with 300 μM DFO."}, "[4]": {"test_system": "VEGF protein in MCF7 cells", "experiment": "Western blot of VEGF protein levels in MCF7 cells", "type": "cell-based, human", "conditions": "MCF7, 400 nM, 300 μM DFO", "experimental": "Western blot analysis of VEGF and c-Met protein levels. MCF7 and MDA-MB-231 cells were plated in 60 mm diameter cell culture dishes (BD Falcon) to a density of 1.0×10^6 cells/mL. […] All samples contained a final concentration 0.1-0.2% v/v of DMSO. After a 6 hour incubation period, hypoxia was induced with 300 μM DFO in MCF7 and with […] in MDA-MB-231 cells. Samples were incubated for an additional 18 hours. Total cellular proteins were extracted from the cells using cell lysis buffer according to manufacturer's protocol (Cell Signaling). Protein concentrations were measured with BCA Protein assay kit (Pierce/Thermo Scientific). Equal amounts of protein samples were subjected to SDS-PAGE and electroblotted to PVDF membrane (Bio-Rad). These were probed first with an anti-VEGF mouse monoclonal (sc-57496, Santa Cruz Biotechnology) or anti c-Met rabbit polyclonal antibody (sc-10, Santa Cruz Biotechnology), stripped with Restore Western Blot Stripping Buffer (Pierce/Thermo Scientific) and re-probed with a rabbit polyclonal anti-β-actin antibody (4867, Cell Signaling).\nAfter washing with tris-buffered saline—Tween 20 (TBST) solution, the membranes were incubated with horseradish peroxidase (HRP)-conjugated secondary antibodies (Santa Cruz Biotechnology). Signals were detected by using SuperSignal chemiluminescent kit (Pierce/Thermo Scientific)."}, "[5]": {"test_system": "global transcript levels (28,869 transcripts) in MCF7 cells", "experiment": "Gene expression profiling with Affymetrix Human Gene ST 1.0 Arrays", "type": "cell-based", "text": "Since the target proteins p300 and CBP are pleiotropic multidomain coactivators, their CH1 regions contain binding sites for multiple transcription factors. One potential concern of the use of ETPs for gene regulation is specificity, because inhibiting the interaction between CBP/p300 and transcription factors other than HIF1α may result in large numbers of affected genes. To rule out nonspecific genome-wide effects of ETPs, we conducted in vitro gene expression profiling experiments with LS72 using Affymetrix Human Gene ST 1.0 Arrays containing oligonucleotide sequences representing 28,869 transcripts.^67,68\nIn order to interrogate cellular genome for global effects, MCF7 cells treated with LS72 at 400 nM were used. Treatment of cells with LS72 at a concentration of 400 nM affected the expression of only 178 genes at ≧2.0 fold levels (FIG. 20). By comparison, treatment with DFO alone changed levels of 329 genes ≧2.0 fold. […] In cells treated with LS72 under DFO-induced hypoxia conditions, we identified 190 genes were affected by this compound. Clustering analysis was performed to identify similarities in the expression profiles between different treatments (FIG. 19)."}, "[6]": {"conditions": "MCF7, hypoxic induction with DFO (300 μM), LS72 400 nM"}}, "data": [{"smiles": "CN1C(=O)[C@]2(Cc3ccc(CCc4ccc(C[C@@]56SS[C@@](CO)(C(=O)N5C)N(C)C6=O)cc4)cc3)SS[C@@]1(CO)C(=O)N2C", "note": "(racemic) [LS72, 4,4′-((ethane-1,2-diylbis(4,1-phenylene))bis(methylene))bis(1-(hydroxymethyl)-5,7-dimethyl-2,3-dithia-5,7-diazabicyclo[2.2.2]octane-6,8-dione)]", "values": [{"measurement": "direct binding to GST-CH1-p300 (in words)", "setting": "[1]", "result": "bind directly"}, {"measurement": "kon", "setting": "[1]; in the presence of DTT, read-out: rate of association (ka)", "result": 4250, "unit": "M⁻¹ s⁻¹"}, {"measurement": "Kd", "setting": "[1]; off rate/on rate, read-out: binding constant KD", "result": 3620, "unit": "nM"}, {"measurement": "EC50 at 24 h", "setting": "[2]", "result": 547, "unit": "nM"}, {"measurement": "CXCR4 mRNA levels, dose response", "setting": "[3]; A549 85% confluent, 300 μM DFO, 400 nM and 1600 nM", "result": "dose-dependent decrease"}, {"measurement": "CXCR4 transcriptional activity (in words)", "setting": "[3]; A549, 400 nM", "result": "excellent inhibition of the transcriptional activity"}, {"measurement": "VEGF protein levels (western blot)", "setting": "[4]", "result": "significant downregulation"}, {"measurement": "number of genes downregulated ≧2.0 fold", "setting": "[5]; MCF7, LS72 400 nM", "result": 88, "unit": "genes"}, {"measurement": "number of genes upregulated by ≧2.0 fold", "setting": "[5]; MCF7, LS72 400 nM", "result": 90, "unit": "genes"}, {"measurement": "number of genes with expression affected at ≧2.0 fold levels", "setting": "[5]; MCF7, LS72 400 nM", "result": 178, "unit": "genes"}, {"measurement": "number of genes affected under DFO-induced hypoxia", "setting": "[5]; MCF7, LS72 under DFO-induced hypoxia conditions", "result": 190, "unit": "genes"}, {"measurement": "CAV1 (Entrez 857) expression change, microarray", "setting": "[5]; [6]", "result": "−1.3"}, {"measurement": "LOXL2 (Entrez 4017) expression change, microarray", "setting": "[5]; [6]", "result": "−1.4"}, {"measurement": "MET (Entrez 4233) expression change, microarray", "setting": "[5]; [6]", "result": "−2.2"}, {"measurement": "SLC5A6 (Entrez 8884) expression change, microarray", "setting": "[5]; [6]", "result": "−2.4"}, {"measurement": "SLC5A8 (Entrez 160728) expression change, microarray", "setting": "[5]; [6]", "result": "−1.4"}, {"measurement": "SLC7A2 (Entrez 6542) expression change, microarray", "setting": "[5]; [6]", "result": "−2.5"}, {"measurement": "SLC9A2 (Entrez 6549) expression change, microarray", "setting": "[5]; [6]", "result": "−1.8"}, {"measurement": "SLC9A3R1 (Entrez 9368) expression change, microarray", "setting": "[5]; [6]", "result": "−1.6"}, {"measurement": "SLC25A12 (Entrez 8604) expression change, microarray", "setting": "[5]; [6]", "result": "−1.8"}, {"measurement": "SLC25A15 (Entrez 10166) expression change, microarray", "setting": "[5]; [6]", "result": "−1.5"}, {"measurement": "SLC26A2 (Entrez 1836) expression change, microarray", "setting": "[5]; [6]", "result": "−1.4"}, {"measurement": "SLC27A4 (Entrez 10999) expression change, microarray", "setting": "[5]; [6]", "result": "−1.4"}, {"measurement": "SLC35A1 (Entrez 10559) expression change, microarray", "setting": "[5]; [6]", "result": "−2.2"}, {"measurement": "SLC35D1 (Entrez 23169) expression change, microarray", "setting": "[5]; [6]", "result": "−3.1"}, {"measurement": "SLC38A9 (Entrez 153129) expression change, microarray", "setting": "[5]; [6]", "result": "−1.5"}, {"measurement": "SLC39A11 (Entrez 201266) expression change, microarray", "setting": "[5]; [6]", "result": "−1.9"}, {"measurement": "TFRC (Entrez 7037) expression change, microarray", "setting": "[5]; [6]", "result": "−1.5"}, {"measurement": "TGFB3 (Entrez 7043) expression change, microarray", "setting": "[5]; [6]", "result": "−1.5"}]}]}
